The compounds below were run against T1, GCS (Canis lupus familiaris, UniProt A0A8I3MXG6) (assay: GCS enzymatic assay (MDCK cell lysate, NBD-ceramide to glucosylceramide, LC/MS)). Settings: Table 2; class symbols A, B, C; the table does not say which of the assays; read-out: Data Range (IC50 values).
T1 construct: endogenous in cells; host or cells: MDCK (Madin-Darby canine kidney) cells, whole-cell lysate
T1 sequence (A0A8I3MXG6 1-394): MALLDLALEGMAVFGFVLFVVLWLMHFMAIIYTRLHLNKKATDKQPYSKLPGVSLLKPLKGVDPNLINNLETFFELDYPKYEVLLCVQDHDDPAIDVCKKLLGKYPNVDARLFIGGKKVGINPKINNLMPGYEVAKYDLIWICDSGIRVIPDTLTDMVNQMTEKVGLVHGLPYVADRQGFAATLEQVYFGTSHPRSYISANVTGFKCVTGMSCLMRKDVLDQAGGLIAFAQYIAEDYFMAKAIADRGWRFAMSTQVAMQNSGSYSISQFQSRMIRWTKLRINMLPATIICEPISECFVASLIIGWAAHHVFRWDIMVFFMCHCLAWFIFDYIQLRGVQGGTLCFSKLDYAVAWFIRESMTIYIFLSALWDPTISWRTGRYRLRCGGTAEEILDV
Assay type: biochemical, canine
Description: This assay was modified based on the study by Larsen et al. (J. Lipid Res. 2011, 53, 282). Madin-Darby canine kidney (MDCK) cell lysate was prepared using M-PER Mammalian Protein Extraction Reagent (Thermal Scientific) in the presence of a protease inhibitor cocktail (Roche). Protein concentration was determined using BCA assay kit (Pierce). […] 0.1% DMSO was used as mock treatment or control. The reaction was terminated by adding 100 μL acetonitrile solution and subjected to LC/MS analysis.
The quantitative analysis of NBD-Ceramide and glucosylceramide was performed on a Shimadzu ultra-fast liquid chromatography (Shimadzu, Japan) coupled with API 4000 triple quadrupole mass spectrometer (Applied Biosystems, Concord, Ontario, Canada). Sample separation was conducted on a Waters Xbridge™ BEH130 C18, 100 mm×4.6 mm i.d, 3.5 μm (Milford, Mass., USA). The mobile phase consisted of water and acetonitrile supplemented with 0.1% formic acid (v/v). The flow rate was 1.0 mL/min. The initial mobile phase was 20% acetonitrile and was ramped in a linear fashion to 50% acetonitrile in 0.4 min. From 0.4 to 1.5 min, the gradient was ramped to 98% acetonitrile, and then was held at […] until 8.0 min. Acetonitrile was reset to 20% in 1.5 min, and maintained until 10.0 min. The total run time was 10.0 min. The MS/MS detection was performed in ESI positive mode. The mass transition of NBD-Ceramide was m/z 576.36→558.40 under the collision energy of 15 V, and the mass transition of glucosylceramide was m/z 738.35→558.40 under 21V collision energy. The cell lysate was diluted with equal volume of acetonitrile. Aliquots of 50 μL diluted samples were added to 1.5 mL tubes, and 100 μL of acetonitrile containing internal standard (100 ng/mL tolbutamide) were added for protein precipitation. The mixture were vortexed and then centrifuged at 13000 rpm for 10 min. 70 μL of supernatant were mixed with 140 μL of H2O and the final solution were injected for LC/MS/MS analysis and IC50's and/or percent inhibitions calculated.

IC50 [nM] | Compound
1 to 30 | CC(C)Oc1ccc([C@@H](O)[C@@H](CN2CCCC2)NC(=O)[C@@H]2CCN(c3ccc(Cl)cc3)C2)cc1Cl [Compound 23, (R)-N-((1R,2R)-1-(3-chloro-4-isopropoxyphenyl)-1-hydroxy-3-(pyrrolidin-1-yl)propan-2-yl)-1-(4-chlorophenyl)pyrrolidine-3-carboxamide]
1 to 30 | O=C(N[C@H](CN1CCCC1)[C@H](O)c1ccc2c(c1)OCCO2)[C@@H]1CCN(c2ccc(F)cc2)C1 [Compound 24, (R)-N-((1R,2R)-1-(2,3-dihydrobenzo[b][1,4]dioxin-6-yl)-1-hydroxy-3-(pyrrolidin-1-yl)propan-2-yl)-1-(4-fluorophenyl)pyrrolidine-3-carboxamide]
1 to 30 | O=C(N[C@H](CN1CCCC1)[C@H](O)c1ccc2c(c1)OCCO2)C1CCN(c2ccc(F)cc2)C1 (stereo partly drawn) [Compound 24B, N-((1R,2R)-1-(2,3-dihydrobenzo[b][1,4]dioxin-6-yl)-1-hydroxy-3-(pyrrolidin-1-yl)propan-2-yl)-1-(4-fluorophenyl)pyrrolidine-3-carboxamide]
1 to 30 | O=C(N[C@H](CN1CCC1)[C@H](O)c1cc(F)c2c(c1)OCCO2)[C@@H]1CCN(c2ccc(Cl)cc2)C1 [Compound 25, (R)-N-((1R,2R)-3-(azetidin-1-yl)-1-(8-fluoro-2,3-dihydrobenzo[b][1,4]dioxin-6-yl)-1-hydroxypropan-2-yl)-1-(4-chlorophenyl)pyrrolidine-3-carboxamide]

Same assay, conditions: Table 2; class symbols D, E, F, NA (not active); the table does not say which of the assays

Compound | Data Range (% inhibition)
O=C(N[C@H](CN1CCCC1)[C@H](O)c1ccc2c(c1)OCCO2)[C@H]1CCN(CCc2ccc(Cl)cc2)C1 [Compound 21F, (S)-1-(4-chlorophenethyl)-N-((1R,2R)-1-(2,3-dihydrobenzo[b][1,4]dioxin-6-yl)-1-hydroxy-3-(pyrrolidin-1-yl)propan-2-yl)pyrrolidine-3-carboxamide] | F (1-49% (or less than 50%))
O=C(N[C@H](CN1CCCC1)[C@H](O)c1ccc2c(c1)OCCO2)[C@@H]1CCN(c2ccccn2)C1 [Compound 22, (R)-N-((1R,2R)-1-(2,3-dihydrobenzo[b][1,4]dioxin-6-yl)-1-hydroxy-3-(pyrrolidin-1-yl)propan-2-yl)-1-(pyridin-2-yl)pyrrolidine-3-carboxamide] | E (50-74% (or less than 75%))
O=C(N[C@H](CN1CCCC1)[C@H](O)c1ccc2c(c1)OCCO2)[C@H]1CCN(c2ccc(F)cc2)C1 [Compound 24C, (S)-N-((1R,2R)-1-(2,3-dihydrobenzo[b][1,4]dioxin-6-yl)-1-hydroxy-3-(pyrrolidin-1-yl)propan-2-yl)-1-(4-fluorophenyl)pyrrolidine-3-carboxamide] | NA (not active—a negative value was generated for % inhibition)
O=C(N[C@H](CN1CCCC1)[C@H](O)c1ccc2c(c1)OCCO2)C1CCN(C2CCCCC2)C1 (stereo partly drawn) [Compound 26, 1-cyclohexyl-N-((1R,2R)-1-(2,3-dihydrobenzo[b][1,4]dioxin-6-yl)-1-hydroxy-3-(pyrrolidin-1-yl)propan-2-yl)pyrrolidine-3-carboxamide] | NA (not active—a negative value was generated for % inhibition)
O=C(N[C@H](CN1CCCC1)[C@H](O)c1ccc(OC2CC2)nc1)[C@@H]1CCN(c2ccc(F)cc2)C1 [Compound 27, (R)-N-((1R,2R)-1-(6-cyclopropoxypyridin-3-yl)-1-hydroxy-3-(pyrrolidin-1-yl)propan-2-yl)-1-(4-fluorophenyl)pyrrolidine-3-carboxamide] | E (50-74% (or less than 75%))
O=C(N[C@H](CN1CCCC1)[C@H](O)c1ccc2c(c1)OCCO2)[C@@H]1CCN(c2ccc(Cl)cn2)C1 [Compound 28, (R)-1-(5-chloropyridin-2-yl)-N((1R,2R)-1-(2,3-dihydrobenzo[b][1,4]dioxin-6-yl)-1-hydroxy-3-(pyrrolidin-1-yl)propan-2-yl)pyrrolidine-3-carboxamide] | E (50-74% (or less than 75%))
O=C(N[C@H](CN1CCCC1)[C@H](O)c1ccc2c(c1)OCCO2)[C@H]1CCN(c2ccc(Cl)cn2)C1 [Compound 28D, (S)-1-(5-chloropyridin-2-yl)-N-((1R,2R)-1-(2,3-dihydrobenzo[b][1,4]dioxin-6-yl)-1-hydroxy-3-(pyrrolidin-1-yl)propan-2-yl)pyrrolidine-3-carboxamide] | NA (not active—a negative value was generated for % inhibition)
CC(C)Oc1ccc([C@@H](O)[C@@H](CN2CCCC2)NC(=O)[C@@H]2CCN(c3ccc(Cl)cc3)C2)cn1 [Compound 29, (R)-1-(4-chlorophenyl)-N-((1R,2R)-1-hydroxy-1-(6-isopropoxypyridin-3-yl)-3-(pyrrolidin-1-yl)propan-2-yl)pyrrolidine-3-carboxamide] | F (1-49% (or less than 50%))
CCCCN1CCC(C(=O)N[C@H](CN2CCCC2)[C@H](O)c2ccc3c(c2)OCCO3)C1 (stereo partly drawn) [Compound 30, 1-butyl-N-((1R,2R)-1-(2,3-dihydrobenzo[b][1,4]dioxin-6-yl)-1-hydroxy-3-(pyrrolidin-1-yl)propan-2-yl)pyrrolidine-3-carboxamide] | NA (not active—a negative value was generated for % inhibition)

Continued, values first:

Data Range (% inhibition) | Compound
F (1-49% (or less than 50%)) | O=C(N[C@H](CN1CCCC1)[C@H](O)c1ccc2c(c1)OCCO2)C1CCN(c2ccccn2)C1 (stereo partly drawn) [Compound 22C, N-((1R,2R)-1-(2,3-dihydrobenzo[b][1,4]dioxin-6-yl)-1-hydroxy-3-(pyrrolidin-1-yl)propan-2-yl)-1-(pyridin-2-yl)pyrrolidine-3-carboxamide]
F (1-49% (or less than 50%)) | O=C(N[C@H](CN1CCCC1)[C@H](O)c1ccc2c(c1)OCCO2)[C@H]1CCN(c2ccccn2)C1 [Compound 22D, (S)-N-((1R,2R)-1-(2,3-dihydrobenzo[b][1,4]dioxin-6-yl)-1-hydroxy-3-(pyrrolidin-l-yl)propan-2-yl)-1-(pyridin-2-yl)pyrrolidine-3-carboxamide]
F (1-49% (or less than 50%)) | CC(C)Oc1ccc([C@@H](O)[C@@H](CN2CCCC2)NC(=O)[C@H]2CCN(c3ccc(Cl)cc3)C2)cc1Cl [Compound 23B, (S)-N-((1R,2R)-1-(3-chloro-4-isopropoxyphenyl)-1-hydroxy-3-(pyrrolidin-1-yl)propan-2-yl)-1-(4-chlorophenyl)pyrrolidine-3-carboxamide]
F (1-49% (or less than 50%)) | O=C(N[C@H](CN1CCC1)[C@H](O)c1cc(F)c2c(c1)OCCO2)[C@H]1CCN(c2ccc(Cl)cc2)C1 [Compound 25B, (S)-N-((1R,2R)-3-(azetidin-1-yl)-1-(8-fluoro-2,3-dihydrobenzo[b][1,4]dioxin-6-yl)-1-hydroxypropan-2-yl)-1-(4-chlorophenyl)pyrrolidine-3-carboxamide]
F (1-49% (or less than 50%)) | O=C(N[C@H](CN1CCCC1)[C@H](O)c1ccc(OC2CC2)nc1)[C@H]1CCN(c2ccc(F)cc2)C1 [Compound 27C, (S)-N-((1R,2R)-1-(6-cyclopropoxypyridin-3-yl)-1-hydroxy-3-(pyrrolidin-1-yl)propan-2-yl)-1-(4-fluorophenyl)pyrrolidine-3-carboxamide]
F (1-49% (or less than 50%)) | O=C(N[C@H](CN1CCCC1)[C@H](O)c1ccc2c(c1)OCCO2)C1CCN(c2ccc(Cl)cn2)C1 (stereo partly drawn) [Compound 28C, 1-(5-chloropyridin-2-yl)-N-((1R,2R)-1-(2,3-dihydrobenzo[b][1,4]dioxin-6-yl)-1-hydroxy-3-(pyrrolidin-1-yl)propan-2-yl)pyrrolidine-3-carboxamide]
F (1-49% (or less than 50%)) | CC(C)Oc1ccc([C@@H](O)[C@@H](CN2CCCC2)NC(=O)[C@H]2CCN(c3ccc(Cl)cc3)C2)cn1 [Compound 29B, (S)-1-(4-chlorophenyl)-N-((1R,2R)-1-hydroxy-1-(6-isopropoxypyridin-3-yl)-3-(pyrrolidin-1-yl)propan-2-yl)pyrrolidine-3-carboxamide]

Reference: patent publication US10239832B2, “N-(1-hydroxy-3-(pyrrolidinyl)propan-2-yl)pyrrolidine-3-carboxamide derivatives as glucosylceramide synthase inhibitors” (BIOMARIN PHARMACEUTICAL INC., priority 2013, dated 2019)
